Experimental data as given in patent publication US20230173008A1, “Composition for preventing hair loss or promoting hair growth comprising extract of above-ground part of carrots” (DAEBONG LS, LTD, priority 2020, published 2023).
Where two headings read alike, the source gives them in different places.

Tested on: human dermal papilla cells
Assay: cells
Details: Human dermal papilla cell, read-out: viability of human dermal papilla cells
Description: Human follicle dermal papilla cells were purchased from PromoCell Co., and a human follicle dermal papilla cell growth medium containing fetal calf serum, bovine pituitary extract, basic fibroblast growth factor and insulin was used and cultured at 37° C. and 5% CO2 incubator.
When the cultured human dermal papilla cells were dispensed in a 48 well plate at 1 × 10^4 cell/mL, and when the amount reached 80% or more, the extract of Example was treated at the concentrations shown in Table 2 below. The positive control group was treated with minoxidil at concentrations of 10 and 50 µM. After culturing the cells for 24, 48, and 72 hours, 200 µL of a 0.5 mg/mL solution of MTT diluted in the medium were added and cultured at 37° C. for 4 hours. After removing the solution, adding 200 µL of DMSO, and transferring 100 µL to a 96 well plate, absorbance was measured at 585 nm using a microplate reader. The average absorbance value for each sample group was obtained, and the cell viability was evaluated by comparing the average absorbance value with the absorbance value of the control group.

Nc1cc(N2CCCCC2)nc(N)[n+]1[O-] [Positive control group, minoxidil]
viability at 10 µM (24 h): 104%
viability at 50 µM (24 h): 107%
viability at 10 µM (48 h): 107%
viability at 50 µM (48 h): 116%
viability at 10 µM (72 h): 115%
viability at 50 µM (72 h): 125%
